From PubChem BioAssay AID180 (DTP/NCI, 2004)
“And” between values parts separate entries of the source, which are not always exact repeats. Equal values may be shown once.

Tested on: BDF1 mice, Adenocarcinoma 755 s.c., tumor weight T/C
Assay: NCI In Vivo Anticancer Drug Screen. Data for tumor model Adenocarcinoma 755 (subcutaneous) in B6D2F1 (BDF1) mice
Settings: endpoint: mean tumor weight, higher = larger tumour
In short: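 Tumor-bearing mice receive test compound while controls get vehicle alone. Antitumor effect is scored from survival or tumor dimensions as a T/C quotient.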

[1] = dose: 75.0 mg/kg/injection, schedule: Q01DX011 (ip), vehicle: saline
[2] = dose: 31.25 mg/kg/injection, schedule: Q01DX011 (ip), vehicle: carboxymethylcellulose (CMC)
[3] = dose: 62.5 mg/kg/injection, schedule: Q01DX011 (ip), vehicle: carboxymethylcellulose (CMC)
[4] = dose: 125.0 mg/kg/injection, schedule: Q01DX011 (ip), vehicle: carboxymethylcellulose (CMC)
[5] = dose: 15.0 mg/kg/injection, schedule: Q01DX011 (ip), vehicle: methylcellulose (MC)
[6] = dose: 31.0 mg/kg/injection, schedule: Q01DX011 (ip), vehicle: methylcellulose (MC)
[7] = dose: 62.0 mg/kg/injection, schedule: Q01DX011 (ip), vehicle: methylcellulose (MC)
[8] = dose: 125.0 mg/kg/injection, schedule: Q01DX011 (ip), vehicle: methylcellulose (MC)
[9] = dose: 250.0 mg/kg/injection, schedule: Q01DX011 (ip), vehicle: methylcellulose (MC)

CC1CN1P1(N2CC2C)=NP(N2CC2C)(N2CC2C)=NP(N2CC2C)(N2CC2C)=N1 (stereo not given)
T/C (dose: 3.0 mg/kg/injection, schedule: Q01DX011 (ip), vehicle: saline): 81 % of control | T/C (dose: 5.0 mg/kg/injection, schedule: Q01DX011 (ip), vehicle: saline): 53 % of control | T/C (dose: 9.0 mg/kg/injection, schedule: Q01DX011 (ip), vehicle: saline): 52 % of control | T/C (dose: 18.0 mg/kg/injection, schedule: Q01DX011 (ip), vehicle: saline): 20 % of control and 35 % of control | T/C (dose: 36.0 mg/kg/injection, schedule: Q01DX011 (ip), vehicle: saline): 9 % of control | T/C [1]: 24 % of control

O=c1[nH]c(=O)n(C2CC(O)C(CO)O2)cc1I (stereo not given)
T/C [2]: 62 % of control | T/C [3]: 65 % of control | T/C [4]: 28 % of control and 51 % of control

Nc1ncnc2c1ncn2C1CCCO1 (stereo not given)
T/C (dose: 18.7 mg/kg/injection, schedule: Q01DX011 (ip), vehicle: saline): 111 % of control | T/C (dose: 37.5 mg/kg/injection, schedule: Q01DX011 (ip), vehicle: saline): 120 % of control | T/C [1]: 119 % of control | T/C (dose: 150.0 mg/kg/injection, schedule: Q01DX011 (ip), vehicle: saline): 52 % of control | T/C (dose: 300.0 mg/kg/injection, schedule: Q01DX011 (ip), vehicle: saline): 23 % of control

CS(=O)(=O)OCCCl
T/C (dose: 20.88 mg/kg/injection, schedule: Q01DX011 (ip), vehicle: carboxymethylcellulose (CMC)): 80 % of control | T/C (dose: 28.73 mg/kg/injection, schedule: Q01DX011 (ip), vehicle: carboxymethylcellulose (CMC)): 80 % of control | T/C (dose: 40.25 mg/kg/injection, schedule: Q01DX011 (ip), vehicle: carboxymethylcellulose (CMC)): 52 % of control | T/C (dose: 41.75 mg/kg/injection, schedule: Q01DX011 (ip), vehicle: carboxymethylcellulose (CMC)): 117 % of control | T/C (dose: 83.5 mg/kg/injection, schedule: Q01DX011 (ip), vehicle: carboxymethylcellulose (CMC)): 97 % of control | T/C (dose: 114.9 mg/kg/injection, schedule: Q01DX011 (ip), vehicle: carboxymethylcellulose (CMC)): 88 % of control and 103 % of control | T/C (dose: 130.0 mg/kg/injection, schedule: Q01DX011 (ip), vehicle: carboxymethylcellulose (CMC)): 54 % of control | T/C (dose: 140.0 mg/kg/injection, schedule: Q01DX011 (ip), vehicle: carboxymethylcellulose (CMC)): 21 % of control | T/C (dose: 150.0 mg/kg/injection, schedule: Q01DX011 (ip), vehicle: carboxymethylcellulose (CMC)): 11 % of control

CCN(CC)c1ccc2cc3ccc(=[N+](CC)CC)cc-3oc2c1
T/C (dose: 0.64 mg/kg/injection, schedule: Q01DX011 (ip), vehicle: carboxymethylcellulose (CMC)): 33 % of control | T/C (dose: 0.66 mg/kg/injection, schedule: Q01DX011 (ip), vehicle: carboxymethylcellulose (CMC)): 47 % of control | T/C (dose: 1.27 mg/kg/injection, schedule: Q01DX011 (ip), vehicle: carboxymethylcellulose (CMC)): 119 % of control | T/C (dose: 1.32 mg/kg/injection, schedule: Q01DX011 (ip), vehicle: carboxymethylcellulose (CMC)): 90 % of control | T/C (dose: 1.7 mg/kg/injection, schedule: Q01DX011 (ip), vehicle: carboxymethylcellulose (CMC)): 91 % of control | T/C (dose: 2.64 mg/kg/injection, schedule: Q01DX011 (ip), vehicle: carboxymethylcellulose (CMC)): 81 % of control | T/C (dose: 4.0 mg/kg/injection, schedule: Q01DX011 (ip), vehicle: other): 115 % of control | T/C (dose: 5.0 mg/kg/injection, schedule: Q01DX011 (ip), vehicle: methylcellulose (MC)): 70 % of control | T/C (dose: 5.1 mg/kg/injection, schedule: Q01DX011 (ip), vehicle: carboxymethylcellulose (CMC)): 53 % of control | T/C (dose: 5.28 mg/kg/injection, schedule: Q01DX011 (ip), vehicle: carboxymethylcellulose (CMC)): 100 % of control | T/C (dose: 8.0 mg/kg/injection, schedule: Q01DX011 (ip), vehicle: other): 114 % of control | T/C (dose: 12.0 mg/kg/injection, schedule: Q01DX011 (ip), vehicle: other): 90 % of control | T/C [5]: 75 % of control

Cc1cn(C2OC(CO)C(O)C2O)c(=O)[nH]c1=O (stereo not given)
T/C (dose: 62.0 mg/kg/injection, schedule: Q01DX011 (ip), vehicle: saline): 86 % of control | T/C (dose: 125.0 mg/kg/injection, schedule: Q01DX011 (ip), vehicle: saline): 78 % of control | T/C (dose: 500.0 mg/kg/injection, schedule: Q01DX011 (ip), vehicle: saline): 121 % of control

C[C@H]1C[C@H]2[C@@H]3CC[C@](O)(C(=O)CF)[C@@]3(C)C[C@H](O)[C@]2(F)[C@@]2(C)C=CC(=O)C=C12
T/C (dose: 0.62 mg/kg/injection, schedule: Q01DX011 (sc), vehicle: steriod suspending solution): 89 % of control | T/C (dose: 1.0 mg/kg/injection, schedule: Q01DX011 (sc), vehicle: steriod suspending solution): 76 % of control | T/C (dose: 1.25 mg/kg/injection, schedule: Q01DX011 (sc), vehicle: steriod suspending solution): 69 % of control | T/C (dose: 10.0 mg/kg/injection, schedule: Q01DX011 (sc), vehicle: steriod suspending solution): 16 % of control and 29 % of control and 33 % of control | T/C (dose: 20.0 mg/kg/injection, schedule: Q01DX011 (sc), vehicle: steriod suspending solution): 18 % of control and 27 % of control | T/C (dose: 40.0 mg/kg/injection, schedule: Q01DX011 (sc), vehicle: steriod suspending solution): 11 % of control and 14 % of control | T/C (dose: 80.0 mg/kg/injection, schedule: Q01DX011 (sc), vehicle: steriod suspending solution): 14 % of control | T/C (dose: 160.0 mg/kg/injection, schedule: Q01DX011 (sc), vehicle: steriod suspending solution): 4 % of control

COC1=C(N)C(=O)c2nc(-c3nc(C(=O)O)c(C)c(-c4ccc(OC)c(OC)c4O)c3N)ccc2C1=O
T/C (dose: 0.02 mg/kg/injection, schedule: Q01DX011 (ip), vehicle: water): 72 % of control | T/C (dose: 0.04 mg/kg/injection, schedule: Q01DX011 (ip), vehicle: water): 47 % of control | T/C (dose: 0.08 mg/kg/injection, schedule: Q01DX011 (ip), vehicle: water): 55 % of control | T/C (dose: 0.16 mg/kg/injection, schedule: Q01DX011 (ip), vehicle: water): 4 % of control | T/C (dose: 0.25 mg/kg/injection, schedule: Q01DX006 (ip), vehicle: water): 41 % of control | T/C (dose: 0.5 mg/kg/injection, schedule: Q01DX006 (ip), vehicle: water): 10 % of control | T/C (dose: 50.0 micrograms/kg/injection, schedule: Q01DX011 (ip), vehicle: water): 36 % of control | T/C (dose: 75.0 micrograms/kg/injection, schedule: Q01DX011 (ip), vehicle: water): 30 % of control

Nc1n[se]nc1C(=O)O
T/C (dose: 0.75 mg/kg/injection, schedule: Q01DX011 (ip), vehicle: carboxymethylcellulose (CMC)): 82 % of control

Cc1ccccc1Nc1cc(Cl)nc(N)n1
T/C [5]: 73 % of control | T/C [6]: 85 % of control | T/C [7]: 75 % of control | T/C [8]: 120 % of control | T/C [9]: 93 % of control

O=S(=O)(F)c1nc(Cl)c2[nH]cnc2n1
T/C (dose: 6.2 mg/kg/injection, schedule: Q01DX011 (ip), vehicle: methylcellulose (MC)): 117 % of control

c1ccn(-c2nc(-n3cccc3)nc(-n3cccc3)n2)c1
T/C [2]: 72 % of control | T/C [3]: 86 % of control | T/C [4]: 73 % of control | T/C (dose: 250.0 mg/kg/injection, schedule: Q01DX011 (ip), vehicle: carboxymethylcellulose (CMC)): 17 % of control and 38 % of control

O=c1[nH]cc(Br)c(=S)[nH]1
T/C [5]: 64 % of control | T/C [6]: 86 % of control | T/C [7]: 80 % of control | T/C [8]: 119 % of control | T/C [9]: 109 % of control

OC1c2cc(Cl)ccc2-c2c(Cl)cc(Cl)cc21 (stereo not given)
T/C (dose: 50.0 mg/kg/injection, schedule: Q01DX011 (ip), vehicle: other): 37 % of control | T/C (dose: 100.0 mg/kg/injection, schedule: Q01DX011 (ip), vehicle: other): 41 % of control | T/C (dose: 200.0 mg/kg/injection, schedule: Q01DX011 (ip), vehicle: other): 19 % of control | T/C (dose: 400.0 mg/kg/injection, schedule: Q01DX011 (ip), vehicle: other): 10 % of control

NS(=O)(=O)c1nc2nc[nH]c2c(=O)[nH]1
T/C (dose: 25.0 mg/kg/injection, schedule: Q01DX011 (ip), vehicle: carboxymethylcellulose (CMC)): 66 % of control | T/C (dose: 75.0 mg/kg/injection, schedule: Q01DX011 (ip), vehicle: carboxymethylcellulose (CMC)): 78 % of control | T/C (dose: 225.0 mg/kg/injection, schedule: Q01DX011 (ip), vehicle: carboxymethylcellulose (CMC)): 61 % of control

CC1CCCCN1/N=N/c1nc2c([nH]1)c(=O)n(C)c(=O)n2C (stereo not given)
T/C (dose: 25.0 mg/kg/injection, schedule: Q01DX011 (ip), vehicle: methylcellulose (MC)): 59 % of control | T/C (dose: 75.0 mg/kg/injection, schedule: Q01DX011 (ip), vehicle: methylcellulose (MC)): 68 % of control
